For test [1], the target named is T1, Histone deacetylase 1 (Homo sapiens, UniProt Q13547). The test is described as follows: Inhibition of human recombinant HDAC1 expressed in human HEK293 cells using Ac-NH-GGK(Ac)-AMC as substrate after 180 mins by fluorescence assay.
The next test relates to A-431. In words: Cytotoxicity against human A431 cells by Alamar Blue assay. The class given is functional, cell-based.
Test [2] is described as follows: Cytotoxicity against human CAL27 cells by Alamar Blue assay. Format: functional, cell-based. The conditions noted are these: CAL-27.
The test system of another test is A549. In words: Cytotoxicity against human A549 cells by Alamar Blue assay. Format: functional, cell-based.
Test [3] addresses Histone deacetylase. In words: Inhibition of HDAC in human HeLa cells using Boc-K(Ac)-AMC as substrate preincubated for 4 hrs before substrate addition measured after 3 hrs by fluorescence assay. Format: cell-based.
A short description of test [4]: Cytotoxicity against human SKBR3 cells by Alamar Blue assay. The class given is functional, cell-based. The conditions noted are these: SK-BR-3.
Test [5] has as its target T2, Protein deacetylase HDAC6 (Homo sapiens, UniProt Q9UBN7).
T2 sequence (Q9UBN7 whole entry): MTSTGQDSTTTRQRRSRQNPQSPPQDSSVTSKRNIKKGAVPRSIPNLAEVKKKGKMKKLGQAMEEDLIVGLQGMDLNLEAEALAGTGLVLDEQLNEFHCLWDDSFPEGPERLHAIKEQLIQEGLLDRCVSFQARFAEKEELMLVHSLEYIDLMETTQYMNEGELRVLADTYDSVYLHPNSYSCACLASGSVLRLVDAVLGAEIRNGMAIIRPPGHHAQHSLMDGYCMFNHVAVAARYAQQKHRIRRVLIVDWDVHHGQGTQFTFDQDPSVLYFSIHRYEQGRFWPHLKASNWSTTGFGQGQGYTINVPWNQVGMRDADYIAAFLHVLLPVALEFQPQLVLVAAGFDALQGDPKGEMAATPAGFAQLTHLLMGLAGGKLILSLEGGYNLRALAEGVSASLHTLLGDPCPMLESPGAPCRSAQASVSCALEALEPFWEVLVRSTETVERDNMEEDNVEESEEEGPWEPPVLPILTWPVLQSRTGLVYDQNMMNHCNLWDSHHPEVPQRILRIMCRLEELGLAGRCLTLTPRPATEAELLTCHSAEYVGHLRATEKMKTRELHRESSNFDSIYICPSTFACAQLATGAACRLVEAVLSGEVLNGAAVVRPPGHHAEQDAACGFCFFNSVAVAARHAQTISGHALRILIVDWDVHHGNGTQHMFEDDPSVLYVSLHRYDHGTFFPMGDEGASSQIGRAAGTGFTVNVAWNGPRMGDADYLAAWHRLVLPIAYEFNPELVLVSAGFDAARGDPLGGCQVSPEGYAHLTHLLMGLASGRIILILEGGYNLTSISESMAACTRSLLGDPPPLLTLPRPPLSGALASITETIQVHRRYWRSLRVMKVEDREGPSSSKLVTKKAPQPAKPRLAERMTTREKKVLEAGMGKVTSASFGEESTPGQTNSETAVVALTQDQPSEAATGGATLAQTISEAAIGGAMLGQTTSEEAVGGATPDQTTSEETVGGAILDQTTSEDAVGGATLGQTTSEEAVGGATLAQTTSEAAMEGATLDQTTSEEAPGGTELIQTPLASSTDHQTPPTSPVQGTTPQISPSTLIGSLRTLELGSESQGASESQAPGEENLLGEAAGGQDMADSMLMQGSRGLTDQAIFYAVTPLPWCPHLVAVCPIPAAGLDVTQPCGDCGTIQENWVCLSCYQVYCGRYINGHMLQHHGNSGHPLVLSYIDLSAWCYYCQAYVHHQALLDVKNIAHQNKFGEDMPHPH
In words: Inhibition of human recombinant HDAC6 expressed in human HEK293 cells using Ac-NH-GGK(Ac)-AMC as substrate after 180 mins by fluorescence assay.

A further test relates to HeLa. In words: Cytotoxicity against human HeLa cells by Alamar Blue assay. Format: functional, cell-based.
The target of test [6] is Histone deacetylase. In words: Inhibition of HDAC in human HeLa cell nuclear extracts using Ac-NH-GGK(Ac)-AMC as substrate after 180 mins by fluorescence assay. Format: protein assay.
The target in test [7] is T3, Histone deacetylase (Homo sapiens) (UniProt Q13547+O15379+Q9UBN7+Q92769+Q9UQL6+Q8WUI4+Q9BY41+Q96DB2+P56524+Q9UKV0+Q969S8). The test is described as follows: Inhibition of HDAC in human HeLa cells using Boc-K(Ac)-AMC as substrate preincubated for 4 hrs before substrate addition measured after 3 hrs by fluorescence assay relative to control. The class given is cell-based.

The target in test [8] is T3, Histone deacetylase (Homo sapiens). The test is described as follows: Inhibition of HDAC in human HeLa cell nuclear extracts using Ac-NH-GGK(Ac)-AMC as substrate after 180 mins by fluorescence assay relative to control. Format: protein assay.
Test [9] concerns the target T4, Histone deacetylase 3 (Homo sapiens, UniProt O15379). The test is described as follows: Inhibition of human recombinant HDAC3 expressed in Sf21 insect cells using Ac-NH-GGK(Ac)-AMC as substrate after 180 mins by fluorescence assay.
The next test relates to SK-OV-3. The test is described as follows: Cytotoxicity against human SKOV3 cells by Alamar Blue assay. Format: functional, cell-based.
The target in the next test is T5, Histone deacetylase 8 (Homo sapiens, UniProt Q9BY41).
T5 sequence (Q9BY41 whole entry): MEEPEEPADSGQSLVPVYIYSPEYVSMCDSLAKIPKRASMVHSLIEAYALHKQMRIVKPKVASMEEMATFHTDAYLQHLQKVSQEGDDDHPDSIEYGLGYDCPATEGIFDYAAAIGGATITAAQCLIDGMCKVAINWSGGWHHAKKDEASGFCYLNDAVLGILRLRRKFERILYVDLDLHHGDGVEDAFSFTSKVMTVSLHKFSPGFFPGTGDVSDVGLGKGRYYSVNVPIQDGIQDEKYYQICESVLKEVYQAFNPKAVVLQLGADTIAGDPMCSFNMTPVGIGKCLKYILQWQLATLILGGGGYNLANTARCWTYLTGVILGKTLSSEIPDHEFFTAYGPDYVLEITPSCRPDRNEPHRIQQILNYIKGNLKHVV
In words: Inhibition of human recombinant HDAC8 expressed in Sf21 insect cells using Ac-NH-GGK(Ac)-AMC as substrate after 180 mins by fluorescence assay.

Test [10] can be described thus: Inhibition of recombinant PKA (unknown origin) using poly-Glu-Tyr peptide as substrate. On the set-up: species or system Homo sapiens.
The target of test [11] is Cyclin-dependent kinase 2 (Homo sapiens, UniProt P24941). The test is described as follows: Inhibition of recombinant CDK2 (unknown origin) using poly-Glu-Tyr peptide as substrate.
Test [12] has as its target Platelet-derived growth factor receptor beta (Homo sapiens, UniProt P09619). The test is described as follows: Inhibition of recombinant PDGFRbeta (unknown origin) using poly-Glu-Tyr peptide as substrate.
For test [13], the target named is T4, Histone deacetylase 3. The test is described as follows: Inhibition of human recombinant HDAC3 expressed in Sf21 insect cells using Ac-NH-GGK(Ac)-AMC as substrate after 180 mins by fluorescence assay relative to control.
For test [14], the target named is Epidermal growth factor receptor (Homo sapiens, UniProt P00533). The test is described as follows: Inhibition of recombinant EGFR (unknown origin) using poly-Glu-Tyr peptide as substrate.
The target of test [15] is Serine/threonine-protein kinase PLK1 (Homo sapiens, UniProt P53350). The test is described as follows: Inhibition of recombinant Plk1 (unknown origin) using poly-Glu-Tyr peptide as substrate.
The target of the next test is Insulin receptor (Homo sapiens, UniProt P06213). In words: Inhibition of recombinant InsR (unknown origin) using poly-Glu-Tyr peptide as substrate.
For test [16], the target named is Receptor tyrosine-protein kinase erbB-2 (Homo sapiens, UniProt P04626). In words: Inhibition of recombinant HER2 (unknown origin) using poly-Glu-Tyr peptide as substrate.
The target of test [17] is Tyrosine-protein kinase ABL1 (Homo sapiens, UniProt P00519). In words: Inhibition of recombinant Abl1 (unknown origin) using poly-Glu-Tyr peptide as substrate.
Test [18] has as its target T1, Histone deacetylase 1. The test is described as follows: Inhibition of human recombinant HDAC1 expressed in human HEK293 cells using Ac-NH-GGK(Ac)-AMC as substrate after 180 mins by fluorescence assay relative to control.

T1 sequence (Q13547 whole entry): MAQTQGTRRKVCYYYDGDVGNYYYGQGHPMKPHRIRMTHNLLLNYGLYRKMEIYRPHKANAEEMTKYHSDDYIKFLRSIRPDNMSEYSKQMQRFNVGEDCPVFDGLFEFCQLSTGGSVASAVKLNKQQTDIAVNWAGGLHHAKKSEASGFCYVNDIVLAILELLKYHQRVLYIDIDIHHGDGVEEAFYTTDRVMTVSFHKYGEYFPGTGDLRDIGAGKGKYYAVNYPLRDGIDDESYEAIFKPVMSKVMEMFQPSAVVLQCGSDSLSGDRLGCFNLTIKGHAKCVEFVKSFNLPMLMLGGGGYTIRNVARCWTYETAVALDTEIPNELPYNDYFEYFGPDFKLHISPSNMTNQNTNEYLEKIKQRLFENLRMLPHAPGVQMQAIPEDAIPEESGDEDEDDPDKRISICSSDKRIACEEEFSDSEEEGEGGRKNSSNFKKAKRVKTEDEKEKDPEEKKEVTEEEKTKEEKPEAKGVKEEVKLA
T4 sequence (O15379 whole entry): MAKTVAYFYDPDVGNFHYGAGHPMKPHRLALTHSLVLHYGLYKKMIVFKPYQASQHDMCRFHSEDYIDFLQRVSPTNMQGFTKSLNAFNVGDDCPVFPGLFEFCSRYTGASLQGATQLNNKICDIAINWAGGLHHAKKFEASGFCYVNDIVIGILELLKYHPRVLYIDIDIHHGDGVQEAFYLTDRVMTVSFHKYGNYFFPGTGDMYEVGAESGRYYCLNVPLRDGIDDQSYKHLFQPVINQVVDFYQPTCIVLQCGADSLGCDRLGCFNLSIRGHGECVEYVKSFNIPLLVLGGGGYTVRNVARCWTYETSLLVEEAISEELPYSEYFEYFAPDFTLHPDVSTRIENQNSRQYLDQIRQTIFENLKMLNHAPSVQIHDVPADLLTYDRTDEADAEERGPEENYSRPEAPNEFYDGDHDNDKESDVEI
Sequence of Epidermal growth factor receptor (P00533 whole entry): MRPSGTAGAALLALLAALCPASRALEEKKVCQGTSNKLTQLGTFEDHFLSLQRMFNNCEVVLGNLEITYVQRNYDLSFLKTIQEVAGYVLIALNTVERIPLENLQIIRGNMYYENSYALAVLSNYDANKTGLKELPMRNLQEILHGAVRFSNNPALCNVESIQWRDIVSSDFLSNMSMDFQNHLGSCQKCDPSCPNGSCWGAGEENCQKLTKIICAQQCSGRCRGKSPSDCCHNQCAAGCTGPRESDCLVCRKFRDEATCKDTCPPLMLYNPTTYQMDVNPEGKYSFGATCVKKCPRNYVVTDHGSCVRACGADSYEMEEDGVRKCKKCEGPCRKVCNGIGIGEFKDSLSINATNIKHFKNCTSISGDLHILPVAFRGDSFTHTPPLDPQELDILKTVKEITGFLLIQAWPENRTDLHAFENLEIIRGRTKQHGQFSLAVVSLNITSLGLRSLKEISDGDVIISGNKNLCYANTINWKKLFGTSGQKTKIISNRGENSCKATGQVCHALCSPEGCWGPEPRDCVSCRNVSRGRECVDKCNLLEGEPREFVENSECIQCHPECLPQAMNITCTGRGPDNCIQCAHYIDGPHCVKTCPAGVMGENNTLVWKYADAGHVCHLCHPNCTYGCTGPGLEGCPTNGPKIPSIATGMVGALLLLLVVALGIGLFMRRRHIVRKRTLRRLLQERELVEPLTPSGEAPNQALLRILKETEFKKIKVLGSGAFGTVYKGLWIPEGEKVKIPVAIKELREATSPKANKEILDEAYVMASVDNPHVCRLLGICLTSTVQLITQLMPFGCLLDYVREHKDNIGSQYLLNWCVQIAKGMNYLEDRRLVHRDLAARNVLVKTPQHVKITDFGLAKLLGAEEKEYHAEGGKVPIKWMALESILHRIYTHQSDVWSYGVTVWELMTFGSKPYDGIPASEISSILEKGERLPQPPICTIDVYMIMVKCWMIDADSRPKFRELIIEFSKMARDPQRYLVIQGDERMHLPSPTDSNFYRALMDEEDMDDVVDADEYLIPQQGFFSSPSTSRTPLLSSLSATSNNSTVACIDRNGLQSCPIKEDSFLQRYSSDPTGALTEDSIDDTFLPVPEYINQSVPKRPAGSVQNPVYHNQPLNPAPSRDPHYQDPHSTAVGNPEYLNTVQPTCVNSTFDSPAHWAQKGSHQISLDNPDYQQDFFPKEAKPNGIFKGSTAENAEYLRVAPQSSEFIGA
Sequence of Receptor tyrosine-protein kinase erbB-2 (P04626 whole entry): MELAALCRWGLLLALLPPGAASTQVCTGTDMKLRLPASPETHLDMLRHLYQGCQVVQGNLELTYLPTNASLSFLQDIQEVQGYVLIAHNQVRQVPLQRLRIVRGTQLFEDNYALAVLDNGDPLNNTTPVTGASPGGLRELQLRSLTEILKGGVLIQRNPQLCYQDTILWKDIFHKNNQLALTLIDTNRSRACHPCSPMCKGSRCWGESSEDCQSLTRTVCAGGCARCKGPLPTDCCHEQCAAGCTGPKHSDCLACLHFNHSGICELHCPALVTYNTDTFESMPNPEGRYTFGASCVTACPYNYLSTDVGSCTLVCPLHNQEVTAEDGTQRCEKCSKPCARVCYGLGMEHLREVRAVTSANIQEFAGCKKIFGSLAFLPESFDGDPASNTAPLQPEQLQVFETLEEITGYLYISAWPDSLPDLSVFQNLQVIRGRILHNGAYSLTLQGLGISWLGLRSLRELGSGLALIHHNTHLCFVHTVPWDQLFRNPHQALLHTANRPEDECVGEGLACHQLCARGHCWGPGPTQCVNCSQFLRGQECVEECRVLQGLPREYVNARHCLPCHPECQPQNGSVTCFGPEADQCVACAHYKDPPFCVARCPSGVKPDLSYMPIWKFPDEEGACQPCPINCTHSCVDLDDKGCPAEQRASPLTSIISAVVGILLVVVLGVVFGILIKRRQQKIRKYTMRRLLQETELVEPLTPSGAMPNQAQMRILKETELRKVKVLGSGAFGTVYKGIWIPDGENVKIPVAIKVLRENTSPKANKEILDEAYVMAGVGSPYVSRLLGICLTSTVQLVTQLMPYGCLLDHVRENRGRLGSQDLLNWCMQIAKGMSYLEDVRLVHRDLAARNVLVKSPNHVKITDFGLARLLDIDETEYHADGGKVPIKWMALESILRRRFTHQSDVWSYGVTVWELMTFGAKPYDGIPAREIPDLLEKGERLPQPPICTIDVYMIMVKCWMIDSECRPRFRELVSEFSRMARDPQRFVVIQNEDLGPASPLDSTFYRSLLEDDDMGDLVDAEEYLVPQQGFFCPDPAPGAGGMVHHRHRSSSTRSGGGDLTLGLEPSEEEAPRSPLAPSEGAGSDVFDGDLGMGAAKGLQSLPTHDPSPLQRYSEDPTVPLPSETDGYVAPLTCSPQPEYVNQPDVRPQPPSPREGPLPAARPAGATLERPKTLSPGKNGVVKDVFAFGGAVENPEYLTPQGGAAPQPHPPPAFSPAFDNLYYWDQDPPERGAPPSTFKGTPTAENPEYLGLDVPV
Sequence of Insulin receptor (P06213 28-758 limits assumed): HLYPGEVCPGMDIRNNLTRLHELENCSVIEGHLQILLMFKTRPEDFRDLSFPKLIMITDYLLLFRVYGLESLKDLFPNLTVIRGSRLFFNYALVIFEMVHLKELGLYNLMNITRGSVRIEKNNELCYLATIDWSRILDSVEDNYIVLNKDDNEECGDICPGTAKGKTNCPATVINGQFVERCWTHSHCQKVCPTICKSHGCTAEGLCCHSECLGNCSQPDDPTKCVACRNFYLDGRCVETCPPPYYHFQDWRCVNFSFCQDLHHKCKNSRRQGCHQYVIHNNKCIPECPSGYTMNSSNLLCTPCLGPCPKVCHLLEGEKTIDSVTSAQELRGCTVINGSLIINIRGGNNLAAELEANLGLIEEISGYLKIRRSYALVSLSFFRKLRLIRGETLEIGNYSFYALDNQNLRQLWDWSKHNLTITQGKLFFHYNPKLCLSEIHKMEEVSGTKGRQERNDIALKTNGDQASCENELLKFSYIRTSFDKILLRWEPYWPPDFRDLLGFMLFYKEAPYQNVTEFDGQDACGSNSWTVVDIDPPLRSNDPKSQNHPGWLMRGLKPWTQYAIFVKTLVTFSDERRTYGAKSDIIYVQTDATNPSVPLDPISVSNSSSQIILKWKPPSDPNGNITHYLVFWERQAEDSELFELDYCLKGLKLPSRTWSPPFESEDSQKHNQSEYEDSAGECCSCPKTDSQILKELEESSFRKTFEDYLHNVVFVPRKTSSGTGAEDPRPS
Sequence of Insulin receptor (P06213 763-1382 limits assumed): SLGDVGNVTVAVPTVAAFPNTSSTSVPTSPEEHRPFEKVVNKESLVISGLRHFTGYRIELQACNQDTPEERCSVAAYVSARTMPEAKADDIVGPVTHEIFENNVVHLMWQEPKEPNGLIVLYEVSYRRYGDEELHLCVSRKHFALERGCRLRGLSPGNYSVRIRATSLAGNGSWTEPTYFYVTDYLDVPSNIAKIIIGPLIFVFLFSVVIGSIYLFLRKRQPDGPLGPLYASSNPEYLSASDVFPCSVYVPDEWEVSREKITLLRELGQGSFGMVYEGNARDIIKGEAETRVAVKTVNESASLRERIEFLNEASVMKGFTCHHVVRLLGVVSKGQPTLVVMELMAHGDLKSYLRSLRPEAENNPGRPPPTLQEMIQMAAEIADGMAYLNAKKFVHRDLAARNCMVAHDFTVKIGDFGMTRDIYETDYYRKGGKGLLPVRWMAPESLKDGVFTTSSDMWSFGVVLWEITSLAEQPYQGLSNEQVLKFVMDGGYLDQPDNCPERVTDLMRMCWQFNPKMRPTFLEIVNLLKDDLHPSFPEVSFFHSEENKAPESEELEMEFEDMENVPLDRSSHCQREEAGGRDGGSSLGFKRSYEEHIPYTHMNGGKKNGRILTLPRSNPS

As to `C#Cc1cccc(Nc2ncnc3cc(NC(=O)c4ccc(C(=O)Nc5ccccc5N)cc4)ccc23)c1`, the IC50 at Histone deacetylase 1 [1] is 0.8 µM; with A-431, 1.6 µM; in test [2], 0.46 µM; in the test on A549, 1.4 µM; at Histone deacetylase [3], 0.78 µM; in [4] it was 39 µM. The IC50 in test [5] is above 32 µM; in the test with HeLa, 1.7 µM; against Histone deacetylase [6] it was 0.2 µM; at Histone deacetylase 3 [9], 0.5 µM; in the test with SK-OV-3 it was above 50 µM; at Histone deacetylase 8 it was above 32 µM. In addition, the Imax in test [7] and in test [8] was 30% each time.

Turning to `C#Cc1cccc(Nc2ncnc3ccc(S(=O)(=O)n4ccc(/C=C/C(=O)Nc5ccccc5N)c4)cc23)c1`, the IC50 is 0.091 µM at Histone deacetylase 1 [1]; 3.7 µM with A-431; 2.5 µM in [2]; 3.7 µM in the test on A549; 24 µM in test [10]; 4.24 µM on Histone deacetylase [3]. For the same compound, the IC50 is 27 µM in test [4]; 17 µM in test [11]; above 32 µM in [5]; 3.45 µM with HeLa; 16 µM in test [12]; 7.2 µM against Histone deacetylase [6]. The IC50 stood at 1.3 µM in test [14]; 27 µM in test [15]; 41 µM at Insulin receptor; 2.9 µM in [16]; 15 µM in test [17]; 0.84 µM on Histone deacetylase 3 [9]. The results for the IC50 in the test on SK-OV-3 and at Histone deacetylase 8 were 5.7 µM and above 32 µM, respectively. For the same compound, the Imax is 75% on Histone deacetylase 3 [13] and 50% in [8].

Regarding `C#Cc1cccc(Nc2ncnc3cc(NC(=O)c4ccc(C(=O)Nc5ccccc5N)s4)ccc23)c1`, the IC50 is 2.2 µM at Histone deacetylase 1 [1]; 0.96 µM in the test with A-431; 1.2 µM in test [2]; 0.82 µM in the test on A549; above 5.01 µM against Histone deacetylase [3]; 33 µM in test [4]. For the same compound, the half-inhibitory concentration (IC50) is above 32 µM in test [5]; 1.8 µM in the test with HeLa; 0.38 µM at Histone deacetylase [6]; 0.77 µM at Histone deacetylase 3 [9]; 30 µM in the test with SK-OV-3; above 32 µM at Histone deacetylase 8. Also, the values for the Imax (at Histone deacetylase 1 [18]; at Histone deacetylase 3 [13]; in test [8]) were 75%, 70% and 30%, respectively.

As for `C#Cc1cccc(Nc2ncnc3ccc(NC(=O)c4ccc(C(=O)Nc5ccccc5N)nc4)cc23)c1`, the IC50 on Histone deacetylase 1 [1] was 0.31 µM; with A-431, above 16 µM; in [2], 8 µM; in the test with A549, 39 µM; at Histone deacetylase [3], above 15.8 µM; in [4], 11 µM. Also, the IC50 in [5] was above 32 µM; with HeLa, 21.5 µM; against Histone deacetylase [6], above 32 µM; at Histone deacetylase 3 [9], 0.44 µM; with SK-OV-3 it was 7.7 µM; at Histone deacetylase 8, above 32 µM. Also, the Imax at Histone deacetylase 1 [18] is 70%.

(Values after ChEMBL document CHEMBL3217617 (Medchemcomm, 2012).)
